From ChEMBL document CHEMBL1201862, “PubChem BioAssay data set” (2004) come the findings set out here.

Test [1] has as its system Escherichia coli. The test can be described thus: microbe, parasite or virus in culture.
For test [2], the target named is Trypsin (Sus scrofa, UniProt P00761). The test can be described thus: trypsin protease activity blockade – biochemical, quenched peptide fluorescence, cherry-pick, selectivity assay for Rce1 protease inhibitor project, dose response (AID 488789).
Sequence of Trypsin (P00761 whole entry): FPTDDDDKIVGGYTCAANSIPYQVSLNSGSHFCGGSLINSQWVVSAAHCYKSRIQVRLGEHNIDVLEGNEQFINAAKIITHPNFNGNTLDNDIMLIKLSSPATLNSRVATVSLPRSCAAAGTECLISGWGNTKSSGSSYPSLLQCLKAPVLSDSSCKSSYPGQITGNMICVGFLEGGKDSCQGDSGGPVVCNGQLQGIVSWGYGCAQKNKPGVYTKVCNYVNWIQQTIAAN
The target in test [3] is CAAX prenyl protease 2 (Homo sapiens, UniProt Q9Y256). The test can be described thus: inhibition of Ras-converting CAAX protease Rce1 – biochemical, yeast membranes, quenched-peptide fluorescence, cherry-pick, dose response (AID 588849).
Sequence of CAAX prenyl protease 2 (Q9Y256 whole entry): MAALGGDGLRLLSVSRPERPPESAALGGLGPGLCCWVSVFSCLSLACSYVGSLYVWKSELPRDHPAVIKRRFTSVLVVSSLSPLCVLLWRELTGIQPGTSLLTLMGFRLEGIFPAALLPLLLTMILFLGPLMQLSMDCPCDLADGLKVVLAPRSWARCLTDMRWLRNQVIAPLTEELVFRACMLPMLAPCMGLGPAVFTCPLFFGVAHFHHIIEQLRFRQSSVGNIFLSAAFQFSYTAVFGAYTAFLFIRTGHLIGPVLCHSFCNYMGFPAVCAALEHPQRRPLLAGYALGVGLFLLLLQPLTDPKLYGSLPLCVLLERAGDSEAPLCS
Test [4] deals with HEK293. The test can be described thus: EBV LMP1 TES2 canonical NF-kB signalling blockers – cell-based, HEK293, luciferase, cherry-pick, dose response (AID 588343). In kind it is functional. As to conditions: Homo sapiens.
Test [5] has as its target T1, Heat shock factor protein 1 (Mus musculus, UniProt P38532).
T1 sequence (P38532 whole entry): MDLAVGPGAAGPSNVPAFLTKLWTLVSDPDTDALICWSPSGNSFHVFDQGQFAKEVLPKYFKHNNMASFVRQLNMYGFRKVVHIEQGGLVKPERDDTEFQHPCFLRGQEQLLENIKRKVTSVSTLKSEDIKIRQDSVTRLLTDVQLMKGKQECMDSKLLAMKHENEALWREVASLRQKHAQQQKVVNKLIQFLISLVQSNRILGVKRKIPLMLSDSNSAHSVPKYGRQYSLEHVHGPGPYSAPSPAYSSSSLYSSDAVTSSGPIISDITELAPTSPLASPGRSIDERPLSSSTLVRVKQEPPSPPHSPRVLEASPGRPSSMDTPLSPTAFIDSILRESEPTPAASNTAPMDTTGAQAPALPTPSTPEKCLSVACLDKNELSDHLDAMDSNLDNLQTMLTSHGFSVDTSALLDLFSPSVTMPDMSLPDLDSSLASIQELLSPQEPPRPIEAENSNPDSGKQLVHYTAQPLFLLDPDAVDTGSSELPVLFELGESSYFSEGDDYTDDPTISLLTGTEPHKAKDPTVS
The test can be described thus: decrease of HSF1-responsive luciferase luminescence – cell-based, NIH3T3, dose retest, confirmation (AID 2382).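 Further: NIH3T3 fibroblasts with HSF1-driven luciferase reporter stressed by proteasome inhibitor MG132; luminescence from HSF1-driven luciferase expression after 8 hours of MG132 stress.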 It counts as functional.

Test [6] is described as follows: toxicity toward HepG2 liver cells – cell-based, plate reader, cherry-pick, antagonist series, cytotoxicity control, dose response (AID 743416). In kind it is functional.
Test [7] can be described thus: viability loss in HEK293 cells – cell-based, plate reader, cherry-picked samples, cytotoxicity control, dose response (AID 743446). In kind it is functional.
For test [8], the target named is 5-hydroxytryptamine receptor 5A (Homo sapiens, UniProt P47898). The test can be described thus: Counterscreen for agonists of OPRM1-OPRD1 heterodimerization: luminescence-based cell-based high throughput dose response assay to identify agonists of 5-hydroxytryptamine (serotonin) 5A receptor (HTR5A). [Related pubchem assays (depositor defined):AID504326, AID504355, AID504692, AID504904, AID504905]. In kind it is functional.
Sequence of 5-hydroxytryptamine receptor 5A (P47898 whole entry): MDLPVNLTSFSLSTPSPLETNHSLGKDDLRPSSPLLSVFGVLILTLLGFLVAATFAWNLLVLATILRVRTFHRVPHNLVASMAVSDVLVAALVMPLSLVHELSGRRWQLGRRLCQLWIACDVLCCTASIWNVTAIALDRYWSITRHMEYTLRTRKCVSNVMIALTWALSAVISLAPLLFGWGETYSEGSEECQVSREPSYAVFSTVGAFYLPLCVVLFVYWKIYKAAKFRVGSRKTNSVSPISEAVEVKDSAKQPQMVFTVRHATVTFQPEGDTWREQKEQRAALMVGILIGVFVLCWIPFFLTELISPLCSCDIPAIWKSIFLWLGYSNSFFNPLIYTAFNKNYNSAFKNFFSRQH

A short description of test [9]: A549 cell cytotoxicity, dose response, cytotoxicity control, plate reader, cherry-pick, antagonist series (AID 743412). In kind it is functional, cell-based.
The target in test [10] is Delta-type opioid receptor (Homo sapiens, UniProt P41143). The test can be described thus: Counterscreen for agonists of heterodimerization of the mu 1 (OPRM1) and delta 1 (OPRD1) opioid receptors: Luminescence-based cell-based high throughput dose response assay to identify agonists of OPRD1 homodimerization. [Related pubchem assays (depositor defined):AID504326, AID504355, AID504692, AID504904, AID504905]. In kind it is functional.
Sequence of Delta-type opioid receptor (P41143 whole entry): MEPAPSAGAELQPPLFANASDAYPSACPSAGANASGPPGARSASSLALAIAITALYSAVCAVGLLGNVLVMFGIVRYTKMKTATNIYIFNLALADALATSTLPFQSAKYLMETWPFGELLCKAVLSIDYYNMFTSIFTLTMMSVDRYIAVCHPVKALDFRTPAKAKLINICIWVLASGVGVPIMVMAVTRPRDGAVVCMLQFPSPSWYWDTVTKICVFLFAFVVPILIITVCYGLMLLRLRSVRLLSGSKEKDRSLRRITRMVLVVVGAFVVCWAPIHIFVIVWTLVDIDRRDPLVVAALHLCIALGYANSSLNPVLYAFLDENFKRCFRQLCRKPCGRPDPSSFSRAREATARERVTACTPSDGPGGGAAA

Test [11] deals with Mu-type opioid receptor (Homo sapiens, UniProt P35372). The test can be described thus: Counterscreen for agonists of heterodimerization of the mu 1 (OPRM1) and delta 1 (OPRD1) opioid receptors: Luminescence-based cell-based high throughput dose response assay to identify agonists of OPRM1 homodimerization. In kind it is functional. For orientation: The purpose of a counterscreen is to sort out artefacts and off-target activity.
Sequence of Mu-type opioid receptor (P35372 whole entry): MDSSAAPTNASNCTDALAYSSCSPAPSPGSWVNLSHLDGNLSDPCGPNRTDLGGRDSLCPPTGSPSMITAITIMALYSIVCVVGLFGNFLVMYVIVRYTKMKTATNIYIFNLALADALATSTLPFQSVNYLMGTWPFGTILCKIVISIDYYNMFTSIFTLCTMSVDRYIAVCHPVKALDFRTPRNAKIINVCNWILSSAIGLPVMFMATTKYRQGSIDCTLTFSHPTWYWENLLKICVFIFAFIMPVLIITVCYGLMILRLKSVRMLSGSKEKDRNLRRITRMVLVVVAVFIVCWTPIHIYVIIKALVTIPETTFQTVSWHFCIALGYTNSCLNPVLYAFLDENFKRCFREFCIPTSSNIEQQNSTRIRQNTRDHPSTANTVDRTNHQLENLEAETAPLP

A short description of test [12]: blockade of melanocortin 4 receptor signaling – cell-based, plate reader, cherry pick, counter-screen for LGR2 antagonist project, dose response (AID 743444).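 Further: transfected HEK 293 cells stimulated with alpha-MSH peptide; potency of inhibitors of the alpha-MSH evoked signal.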 In kind it is functional.
Test [13] can be described thus: blockers of bursicon-stimulated LGR2 cAMP reporter – cell-based, HEK293, CRE-luciferase reporter, cherry pick, set 2, dose response (AID 743343).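 Further: transfected cells were stimulated with diluted bursicon conditioned medium after compound addition.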 It counts as functional. Background: Reporter assays use an easily measured gene product as a stand-in for the process of interest.
The target of test [14] is Dual specificity protein kinase CLK1 (Homo sapiens, UniProt P49759). The test can be described thus: inhibition of human CLK1 activity – biochemical, cherry-picked samples, selectivity assay for Dyrk1A inhibitor project, dose response (AID 588811).
Sequence of Dual specificity protein kinase CLK1 (P49759 whole entry): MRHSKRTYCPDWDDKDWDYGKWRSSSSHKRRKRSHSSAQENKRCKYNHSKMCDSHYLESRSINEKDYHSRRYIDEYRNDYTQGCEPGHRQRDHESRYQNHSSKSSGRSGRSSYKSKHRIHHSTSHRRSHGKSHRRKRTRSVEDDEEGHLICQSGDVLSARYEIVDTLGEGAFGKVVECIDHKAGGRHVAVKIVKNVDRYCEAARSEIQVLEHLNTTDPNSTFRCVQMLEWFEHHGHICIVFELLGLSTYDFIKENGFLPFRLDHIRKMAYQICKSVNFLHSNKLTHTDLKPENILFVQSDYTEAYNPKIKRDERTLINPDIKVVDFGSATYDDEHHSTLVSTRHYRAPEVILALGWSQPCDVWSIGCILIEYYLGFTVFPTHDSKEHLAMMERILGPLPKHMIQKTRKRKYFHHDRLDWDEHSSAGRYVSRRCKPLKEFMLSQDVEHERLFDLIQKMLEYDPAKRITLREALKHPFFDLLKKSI
Test [15] addresses Dual specificity tyrosine-phosphorylation-regulated kinase 1A (Rattus norvegicus, UniProt Q63470). In kind it is biochemical, Homo sapiens.
Test [16] deals with Streptococcus. The test can be described thus: GAS UMAA2166 growth inhibition – luminescence, BacTiterGlo, counter-screen for streptokinase expression inhibitor project, dose response (AID 1915).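 Further: potency for reduction of bacterial viability or growth.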 It counts as functional, organism-based.
Test [17] deals with Streptococcus sp. 'group A'. The test can be described thus: Streptococcus pyogenes SK(-)GAS viability under kanamycin – luminescence, BacTiterGlo, confirmation, counter-screen for streptokinase expression inhibitor project, dose response (AID 1900). In kind it is functional, organism-based.
For test [18], the target named is T2, Streptokinase A (Streptococcus pyogenes serotype M1, UniProt P10520).
T2 sequence (P10520 whole entry): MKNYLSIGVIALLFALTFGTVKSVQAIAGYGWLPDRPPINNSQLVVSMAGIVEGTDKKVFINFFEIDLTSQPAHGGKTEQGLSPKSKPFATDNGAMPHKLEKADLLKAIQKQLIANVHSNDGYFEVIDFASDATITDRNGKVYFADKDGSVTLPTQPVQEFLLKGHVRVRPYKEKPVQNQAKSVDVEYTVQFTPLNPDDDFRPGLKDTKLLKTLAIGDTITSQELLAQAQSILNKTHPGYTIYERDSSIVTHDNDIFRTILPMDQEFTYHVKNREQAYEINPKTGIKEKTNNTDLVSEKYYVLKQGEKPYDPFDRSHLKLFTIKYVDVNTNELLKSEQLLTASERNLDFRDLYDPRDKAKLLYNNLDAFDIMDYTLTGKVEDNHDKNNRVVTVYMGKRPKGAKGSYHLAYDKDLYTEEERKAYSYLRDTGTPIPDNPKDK
The test can be described thus: viability-normalized secreted streptokinase activity reduction – plasminogen activation absorbance, OD405, dose response (AID 1914).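 Further: secreted streptokinase activity via plasminogen activation per viability signal from cell pellet.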 It counts as functional, Streptococcus pyogenes M1 GAS.

Test [19] deals with HEK293. The test can be described thus: cells. The conditions noted are these: Homo sapiens.
Test [20] concerns HEK293. The test can be described thus: cells. The conditions noted are these: Homo sapiens. This is another data set of the same source.
The target in test [21] is Heat shock protein HSP 90-alpha (Homo sapiens, UniProt P07900). It counts as functional, organism-based.
The target of test [22] is Genome polyprotein (dengue virus type 2, UniProt P29990). The test can be described thus: flavivirus cap methylation enzyme inhibition – biochemical, confirmation dose response, primary screen (AID 588689). In kind it is functional.
Sequence of Genome polyprotein (P29990 2492-3391 limits assumed): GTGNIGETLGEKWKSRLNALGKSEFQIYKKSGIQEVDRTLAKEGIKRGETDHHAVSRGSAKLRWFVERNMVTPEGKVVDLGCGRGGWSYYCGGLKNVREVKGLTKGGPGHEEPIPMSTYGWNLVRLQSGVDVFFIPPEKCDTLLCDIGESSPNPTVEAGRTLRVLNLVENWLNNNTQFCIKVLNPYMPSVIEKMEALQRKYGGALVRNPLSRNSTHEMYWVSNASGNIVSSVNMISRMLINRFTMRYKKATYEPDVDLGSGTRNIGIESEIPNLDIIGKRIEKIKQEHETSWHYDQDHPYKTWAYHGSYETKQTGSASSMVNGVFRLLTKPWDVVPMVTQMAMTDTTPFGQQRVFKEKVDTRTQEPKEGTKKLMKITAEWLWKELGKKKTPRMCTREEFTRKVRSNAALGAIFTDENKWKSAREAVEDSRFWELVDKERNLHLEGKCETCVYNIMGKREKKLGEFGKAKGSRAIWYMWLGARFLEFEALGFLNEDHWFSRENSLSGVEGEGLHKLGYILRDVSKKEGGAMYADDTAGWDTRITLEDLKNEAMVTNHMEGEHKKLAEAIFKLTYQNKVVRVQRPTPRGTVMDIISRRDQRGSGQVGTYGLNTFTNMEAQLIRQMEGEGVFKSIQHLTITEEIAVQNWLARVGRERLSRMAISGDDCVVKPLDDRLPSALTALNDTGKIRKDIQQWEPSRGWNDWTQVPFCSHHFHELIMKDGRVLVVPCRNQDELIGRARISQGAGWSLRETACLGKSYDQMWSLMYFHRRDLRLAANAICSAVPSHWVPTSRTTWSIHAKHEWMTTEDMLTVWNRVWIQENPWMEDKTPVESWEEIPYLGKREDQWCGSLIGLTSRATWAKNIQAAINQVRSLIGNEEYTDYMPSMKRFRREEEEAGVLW

In general, AC50 refers to the concentration giving half of the maximal activity seen. Broadly, the EC50 is the concentration giving half of the maximal effect. The IC50 is the point on the concentration scale where inhibition reaches its midpoint.

Activity calls are given as the source filed them.

Consider `COc1ccccc1NS(=O)(=O)c1ccc2nc(S)oc2c1`, for which the AC50 in test [1] was > 380 µM (inactive).

Turning to `Cc1cc(C)c2nc(-c3ccco3)cc(C(=O)O)c2c1`, the AC50 in test [2] was 10.9 µM (active); in test [3], 15.3 µM (active).

`Cc1ccc(-n2cc(C(=O)c3ccccc3O)cn2)cc1`: in test [4], the AC50 is 0.725 µM (active). Besides, the EC50 in [5] is < 0.16 µM (active).

For `CC(C)n1ncc2c(C(=O)Nc3cccc(C#N)c3)cc(C3CC3)nc21`, the AC50 is 21.8 µM (active) in [6]; 24.3 µM (active) in test [7]; 39.1 µM (active) in test [9]; 0.789 µM (active) in test [12]; 1.46 µM (active) in [13]. Also, the values for the EC50 in test [8], in test [10] and in test [11] were > 92.5 µM (inactive), > 92.5 µM (inactive) and 18 µM (inactive), respectively.

Consider `COc1cccc(NC(=O)Nc2ccc3c(c2)N(C)C(=O)CS3)c1`, for which the results for the AC50 in test [14] and in test [15] were 9.67 µM (active) and 5.3 µM (active), respectively.

Consider `COC(=O)[C@@H]1[C@@H](C#N)C2(c3ccccc3-c3ccccc32)N(c2ccc(Cl)cc2)N1C#N`, for which the EC50 in [16] is 19 µM (active); in test [17], 5.91 µM (active); in test [18], 63.1 µM (active); in test [19], > 59.6 µM (inactive); in [20], > 59.6 µM (inactive). Further, in test [21], the AC50 was 1.7 µM (active). Also, the IC50 in test [22] was 92.4 µM (active).
